Test results published in article PMC10958125 (Clinical and Translational Medicine, 2024).
Where two headings read alike, the source gives them in different places.

What was measured:
[1] = system: metastatic prostate cancer patients; settings: cited from earlier work
[2] = human, in vivo
clinical = settings: human, in vivo, iv, 75 mg/m2
[3] = system: metastatic prostate cancer patients; parameters: method as in PMID 15470213; settings: TAX327 trial, cited from earlier work
[4] = system: metastatic prostate cancer patients; parameters: method as in PMID 28753384; settings: FIRSTANA trial, cited from earlier work
[5] = system: metastatic prostate cancer patients; format: in vivo; settings: lycopene alone for 2 weeks from day 1, dose escalation cohort
[6] = system: Insulin‐like growth factor binding protein 3 (IGFBP‐3); test: Plasma IGFBP-3, sandwich ELISA; format: in vivo, human; settings: all lycopene doses, any time point
Description: Insulin‐like growth factor binding protein 3 (IGFBP‐3) levels were measured in duplicate by sandwich ELISA assays using kits from eBioscience in subjects 1–12 of the dose escalation cohort.

[7] = system: Circulating endothelial cells (CECs); test: Circulating endothelial cells, flow cytometry; format: in vivo, human
Description: (§1) Vascular endothelial growth factor A (VEGF‐A) was measured on Ethylenediaminetetraacetic acid plasma from subjects 1−12 of the dose escalation cohort, with a commercial sandwich ELISA kit (R&D Systems). Circulating endothelial cells (CECs) were measured with an 11‐colour flow cytometry scheme using a method adopted from a previously published protocol.[36] The definition for CECs was viable cells (alive, intact nucleus) that were positive for surface CD31 and CD34, and that were negative for haematopoietic marker CD45. Additional exploratory markers were CD105 and CD146. […] Samples were collected before the scheduled docetaxel dose for that day.
(§2) Both VEGF‐A and CEC levels were analysed using linear mixed‐effects regression models with a subject‐level random effect included to account for within‐subject correlation. Models were adjusted for the individual's baseline levels in both outcomes. All analyses and hypothesis testing were completed on the log scale and back transformed to estimate fold changes. Analysis was completed in the R environment,[37] with all tests level α = .05. The VEGF‐A levels were near‐linear over time, so time was treated as continuous, and slopes between groups were compared using Wald tests. Levels of CECs were non‐linear over time; therefore, time was treated as a fixed factor in the CEC model, with a time‐by‐dose interaction effect. Pairwise tests of differences between the CEC model‐based estimated means at each time point after zero were completed using the emmeans package.[38] As these analyses are exploratory/hypothesis generating, no multiple comparison adjustments have been made. Simple Bonferroni adjustments would lead to p‐value cutoffs of .01 (five comparisons) and .0033 (15 comparisons) for the VEGF‐A and CEC analyses, respectively.

IGF‐1R = IGF‐1R (Homo sapiens, UniProt P08069); test: Ligand-dependent phosphorylation of IGF-1R(Y1131) in PBMCs stimulated ex vivo with rhIGF-1; settings: patients
Sequence of IGF‐1R (P08069 31-1367): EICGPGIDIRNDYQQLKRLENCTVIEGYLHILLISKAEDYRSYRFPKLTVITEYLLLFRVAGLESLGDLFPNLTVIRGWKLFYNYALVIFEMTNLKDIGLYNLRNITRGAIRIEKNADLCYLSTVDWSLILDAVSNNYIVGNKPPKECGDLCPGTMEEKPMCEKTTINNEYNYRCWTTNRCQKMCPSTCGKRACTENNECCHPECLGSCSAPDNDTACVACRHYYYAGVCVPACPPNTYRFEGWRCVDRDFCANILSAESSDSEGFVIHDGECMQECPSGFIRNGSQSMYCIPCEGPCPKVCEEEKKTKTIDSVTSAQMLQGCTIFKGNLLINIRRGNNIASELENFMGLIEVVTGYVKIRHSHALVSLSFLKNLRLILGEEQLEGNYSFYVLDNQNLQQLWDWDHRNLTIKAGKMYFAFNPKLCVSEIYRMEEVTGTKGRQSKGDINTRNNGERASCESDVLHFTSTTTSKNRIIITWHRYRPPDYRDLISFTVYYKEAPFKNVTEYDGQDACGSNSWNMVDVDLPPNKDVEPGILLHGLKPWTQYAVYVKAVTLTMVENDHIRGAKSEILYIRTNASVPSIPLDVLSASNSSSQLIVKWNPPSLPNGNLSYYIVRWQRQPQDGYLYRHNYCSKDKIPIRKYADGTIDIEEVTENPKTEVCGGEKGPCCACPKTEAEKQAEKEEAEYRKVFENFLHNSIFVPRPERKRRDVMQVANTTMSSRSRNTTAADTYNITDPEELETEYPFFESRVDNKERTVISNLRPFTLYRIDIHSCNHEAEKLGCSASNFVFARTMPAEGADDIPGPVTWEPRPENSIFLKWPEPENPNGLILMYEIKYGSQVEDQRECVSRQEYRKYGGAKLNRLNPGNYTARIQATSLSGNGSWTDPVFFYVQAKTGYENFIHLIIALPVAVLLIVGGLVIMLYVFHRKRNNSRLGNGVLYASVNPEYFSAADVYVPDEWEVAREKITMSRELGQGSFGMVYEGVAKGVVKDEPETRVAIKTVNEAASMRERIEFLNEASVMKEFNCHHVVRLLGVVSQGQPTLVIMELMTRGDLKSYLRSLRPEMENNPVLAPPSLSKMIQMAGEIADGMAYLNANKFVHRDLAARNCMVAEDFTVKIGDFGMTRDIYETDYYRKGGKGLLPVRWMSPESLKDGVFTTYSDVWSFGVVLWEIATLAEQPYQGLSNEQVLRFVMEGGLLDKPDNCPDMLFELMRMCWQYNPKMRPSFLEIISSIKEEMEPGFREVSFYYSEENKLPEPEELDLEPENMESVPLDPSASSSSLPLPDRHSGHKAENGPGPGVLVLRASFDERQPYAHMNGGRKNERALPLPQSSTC
Description: Briefly, ligand‐dependent phosphorylation of the IGF‐1R was estimated using an ex vivo assay that utilised peripheral blood mononuclear cells (PBMCs). […] The cells were then lysed, and the quantity of phosphoIGF‐1R(Y1131) was estimated by an ELISA assay (Cell Signalling Technologies). Ligand‐dependent phosphorylation was defined as the ratio of pIGF‐1R(Y1131) in ligand‐stimulated PBMCs to the same parameter for unstimulated PBMCs. […] Thus, the changes in the level of ligand‐dependent phosphorylation over time were analysed by both parametric and non‐parametric methods.
Measurement of IGF-1R (Y1131) phosphorylation in PBMNCs after ex vivo ligand treatment. […] The primary analyte was phosphorylation of the IGF-1R on Y1131, measured by ELISA on lysates of PBMCs treated (or not) with recombinant human IGF-1.
Whole blood (10mL) is collected into an ACD (acid citrate-dextrose) Vacutainer®. Peripheral blood mononuclear cells are collected by density gradient centrifugation using LSM Lymphoprep® and an Accuspin® 50mL tube (Sigma). The mononuclear cells are collected, washed x 2 with serum-free RPMI1640 medium, then resuspended in 1mL of RPMI 1640 medium + 0.1% BSA. Cells are then aliquoted into 1mL microcentrifuge tubes, 0.5mL of cells per tube per condition.
Cells are incubated for 1-2hr at 37C, then rhIGF-1 (Peprotech) is added to 50-500ng/mL final concentration. Incubation continues for 15min at 37C.
Cells are then pelleted and washed with 1mL of cold RPMI 1640 medium (no protein).
The cell pellet is lysed with 120mcL of Cell Signalling® ELISA buffer containing phosphatase inhibitors and protease inhibitors. The lysate can be stored at -80C or assayed immediately.
For total protein measurement follow the BCA method (BioRad).
For IGF-1R(Y1131) ELISA (Cell Signalling® #7302) proceed per kit instructions. […]
The standard will be used as a series of 2-fold dilutions, being diluted with assay buffer from the ELISA kit. […] Results will be expressed as X units of pIGF-1R protein per amount of protein in the lysate. The protein is measured by the BCA method, as mcg/mL.

[8] = system: metastatic prostate cancer patients
[9] = Plasma lycopene levels (HPLC); format: in vivo, human
[10] = system: Vascular endothelial growth factor A (VEGF‐A); test: Plasma VEGF-A, sandwich ELISA; format: in vivo, human
Description: as §1, §2

## CC(=O)O[C@@]12CO[C@@H]1C[C@H](O)[C@@]1(C)C(=O)[C@H](O)C3=C(C)[C@@H](OC(=O)[C@H](O)[C@@H](NC(=O)OC(C)(C)C)c4ccccc4)C[C@@](O)([C@@H](OC(=O)c4ccccc4)[C@H]21)C3(C)C [docetaxel]
[1]; mCRPC
  Increased overall survival: 2.4 months
[1]; mCSPC
  Increased overall survival: 16.8 months
[2]
  Plasma docetaxel C max, geometric mean: 2810 ng/mL
[2]; iv, 75 mg/m2
  Plasma docetaxel AUClast, geometric mean: 2810 ng·h/mL
clinical
  AUC(0-inf): 3020 ng·h/mL
[3]; any grade
  Alopecia, % any: 65.1%
  Anaemia, % any: 66.5%
  Anorexia, % any: 16.6%
  Arthralgia, % any: 8.1%
  Cough, % any: 12.3%
  Diarrhoea, % any: 31.6%
  Dysgeusia, % any: 18.4%
  Dyspnoea, % any: 15.1%
  Fatigue, % any: 53.3%
  Febrile neutropenia, % any: 2.7%
  Infection, % any: 32.2%
  Nail changes, % any: 29.5%
  Nausea, % any: 41%
  Neutropenia, % any: 40.9%
  Peripheral oedema, % any: 18.1%
  Rash/desquamation, % any: 6%
  Sensory/motor neuropathy, % any: 30.4%
  Stomatitis/pharyngitis, % any: 19.6%
  Tearing, % any: 9.9%
  Thrombocytopenia, % any: 3.4%
  Vomiting, % any: 16.9%
[3]
  Anaemia, % grade 3+: 4.9%
  Anorexia, % grade 3+: 1.2%
  Arthralgia, % grade 3+: .6%
  Cough, % grade 3+: 0%
  Diarrhoea, % grade 3+: 2.1%
  Dysgeusia, % grade 3+: 0%
  Dyspnoea, % grade 3+: 2.7%
  Fatigue, % grade 3+: 4.5%
  Febrile neutropenia, % grade 3+: 2.7%
  Infection, % grade 3+: 5.7%
  Nausea, % grade 3+: 2.7%
  Neutropenia, % grade 3+: 32%
  Peripheral oedema, % grade 3+: .3%
  Sensory/motor neuropathy, % grade 3+: 1.8%
  Stomatitis/pharyngitis, % grade 3+: .9%
  Tearing, % grade 3+: .6%
  Thrombocytopenia, % grade 3+: .6%
  Vomiting, % grade 3+: 1.5%
[4]; any grade
  Alopecia, % any: 39%
  Anaemia, % any: 99.5%
  Anorexia, % any: 17.1%
  Arthralgia, % any: 8%
  Constipation, % any: 18.1%
  Cough, % any: 9.8%
  Diarrhoea, % any: 37%
  Dysgeusia, % any: 18.1%
  Dyspnoea, % any: 9.6%
  Fatigue, % any: 28.9%
  Febrile neutropenia, % any: 8.3%
  Infection, % any: 7.2%
  Nail changes, % any: 9%
  Nausea, % any: 22.7%
  Neutropenia, % any: 89%
  Pain in extremity, % any: 9.8%
  Peripheral oedema, % any: 20.4%
  Rash/desquamation, % any: 5.9%
  Sensory/motor neuropathy, % any: 25.1%
  Stomatitis/pharyngitis, % any: 13.7%
  Tearing, % any: 9.6%
  Thrombocytopenia, % any: 32.6%
  Vomiting, % any: 11.6%
[4]
  Anaemia, % grade 3+: 5.5%
  Anorexia, % grade 3+: .3%
  Arthralgia, % grade 3+: 1%
  Constipation, % grade 3+: 1%
  Cough, % grade 3+: 0%
  Diarrhoea, % grade 3+: 2.3%
  Dysgeusia, % grade 3+: 0%
  Dyspnoea, % grade 3+: .3%
  Fatigue, % grade 3+: .3%
  Febrile neutropenia, % grade 3+: 8.3%
  Infection, % grade 3+: 4.1%
  Nausea, % grade 3+: .8%
  Neutropenia, % grade 3+: 78.9%
  Pain in extremity, % grade 3+: 1%
  Peripheral oedema, % grade 3+: 1.6%
  Sensory/motor neuropathy, % grade 3+: 2.1%
  Stomatitis/pharyngitis, % grade 3+: .8%
  Tearing, % grade 3+: 0%
  Thrombocytopenia, % grade 3+: 1.6%
  Vomiting, % grade 3+: .8%

## CC(C)=CCC/C(C)=C/C=C/C(C)=C/C=C/C(C)=C/C=C/C=C(C)/C=C/C=C(C)/C=C/C=C(\C)CCC=C(C)C [lycopene]
[5]
  Adverse events during lycopene alone lead-in: No participant reported any adverse event
[6]
  Change of plasma IGFBP-3 from pretreatment level: no statistically significant differences
[7]; lycopene 30 mg/day + docetaxel/ADT, all time points
  Change of CEC number vs pre-treatment: decreased
[7]; lycopene 90 mg daily + docetaxel/ADT
  Change of CEC number vs pre-treatment: increased CEC levels at all time points
[7]; lycopene 150 mg daily + docetaxel/ADT
  Change of CEC number vs pre-treatment: significant increase in CECs only on day 57
IGF‐1R; 150 mg lycopene daily, day 78, p = .048
  Change of ligand-dependent phosphorylation of IGF1-R(Y1131): borderline decrease
IGF‐1R; 150 mg lycopene daily, day 99, p = .027
  Change of ligand-dependent phosphorylation of IGF1-R(Y1131): significant decrease
IGF‐1R; 30 or 90 mg/day lycopene, day 15 to 99
  Change of ligand-dependent phosphorylation of IGF1-R(Y1131): did not show a consistent change
[8]; in combination with docetaxel 75 mg/m^2 and ADT
  Maximum tolerated dose (MTD) of synthetic lycopene: 150 mg/day
[8]; in vivo
  Dose-limiting toxicity: No DLT
[8]; male, human, in vivo
  Probability of toxicity, dose level 1: 0
  Probability of toxicity, dose level 2: .009
  Probability of toxicity, dose level 3: .106
[9]; 30 mg daily synthetic lycopene with docetaxel
  Increase of plasma lycopene concentration from baseline: approximately 1.6 fold
[9]; Figure 2B
  Peak concentration of lycopene in plasma at 150 mg/day compared to 30 and 90 mg/day: did not further increase the peak concentration
[9]; after 99 days of treatment
  Mean lycopene concentration in plasma: .82 ± .49 µmol/L
[9]; baseline
  Mean lycopene concentration in plasma: .48 ± .37 µmol/L
[9]; baseline to 99 days
  Increase of plasma lycopene during treatment: 93.4%
[10]; lycopene 30 mg/day + docetaxel/ADT
  Change of plasma VEGF-A level over time: tended to decrease
[10]; lycopene 90 mg/day + docetaxel/ADT
  Change of plasma VEGF-A level over time: little change
[10]; lycopene 150 mg/day + docetaxel/ADT
  Change of plasma VEGF-A level over time: to increase
